{"source": "patent US10851069B2", "about": "“Compositions of crystallized hydrophobic compounds and methods of making and using same” (Massachusetts Institute of Technology, priority 2016, dated 2020)", "key": {"[1]": {"assay": "Drug extraction (HPLC) of retrieved capsules, remaining loaded drug", "format": "in vivo, C57BL/6 mice", "settings": "crystalline, co-encapsulated with islets, after 460 days compared to 6 months (180 days)", "method": "Calibration curves were obtained on an Agilent LC 1100 Series (Agilent Technologies, CA, USA) equipped with binary pump ([…] Å), auto-sampler (G1313 Å), degasser and photodiode detector (DAD, […] Å). Chemstation was used for system control, data processing and data acquisition for LC. Chromatographic separation was achieved by an analytical Waters Atlantis T3 C18 column (5 μm, 4.6×250 mm). The temperature of column and auto-sampler were kept at 20° C. Stock solution of GW2580 was prepared in dimethyl sulfoxide (DMSO) at a target concentration of 10 mg/ml and appropriate dilutions were made in DMSO to prepare standards (0.25-2500 μg/ml) for calibration curve of GW2580. 10 μl of standard solution was injected and the analytes were eluted by gradient mode using (A) acetonitrile and (B) 0.1% formic acid in water at a constant flow rate of 1 ml/min. The gradient conditions of mobile phase were as follows: 0 min 10% A, 10 min 95% A, 14 min 95% A, 16 min 10% A, 20 min 10% A. Stock solution of curcumin was prepared in dimethyl sulfoxide (DMSO) at a target concentration of 10 mg/ml and appropriate dilutions were made in DMSO to prepare standards (0.05-500 μg/ml) for calibration curve of curcumin. 10 μl of standard solution was injected and the analytes were eluted by gradient mode using (A) acetonitrile and (B) 0.1% formic acid in water at a constant flow rate of 1 ml/min. […]"}, "rat islets": {"test_system": "rat islets", "assay": "Live/dead islet staining of islets co-encapsulated with drug", "format": "cell-based", "settings": "amorphous and crystalline forms", "method": "Male Sprague-Dawley rats from Jackson Laboratories (Bar Harbor, Me.) weighing approximately 300 grams were used for harvesting islets. All rats were anesthetized by a 1:20 xylazine (10 mg/kg) to ketamine (150 mg/kg) injection given intraperitoneally, and the total volume of each injection was 0.4 ml-0.5 ml depending on the weight of rat. Isolation surgeries were performed as described by Lacy and Kostianovsky^2. Briefly, the bile duct was cannulated and the pancreas was distended by an in vivo injection of 0.15% Liberase (Research Grade, Roche) in RPMI 1640 media solution. Rats were sacrificed by cutting the descending aorta and the distended pancreatic organs were removed and held in 50 ml conical tubes on ice until the completion of all surgeries. All tubes were placed in a 37° C. water bath for a 30 min digestion, which was stopped by adding 10-15 ml of cold M199 media with 10% heat-inactivated fetal bovine serum (HIFBS) and lightly shaking. Digested pancreases were washed twice in the same aforementioned M199 media, filtered through a 450 μm sieve, and then suspended in a Histopaque 1077 (Sigma)/M199 media gradient and centrifuged at 1,700 RCF at 4° C. […] Purified islets were hand-counted by aliquot under a light microscope and then washed three times in sterile ix phosphate-buffered saline. […]"}}}
{"smiles": "COc1ccc(COc2ccc(Cc3cnc(N)nc3N)cc2OC)cc1", "note": "[GW2580, 5-[[3-Methoxy-4-[(4-methoxyphenyl)methoxy]phenyl]methyl]-2,4-pyrimidinediamine]", "values": [{"measurement": "drug remaining in retrieved capsules", "setting": "[1]", "result": "significantly larger amount"}, {"measurement": "toxicity to co-encapsulated islets (dead/live imaging)", "setting": "rat islets", "result": "non-toxic"}]}
